From PubChem BioAssay (NCI) come the findings set out here.

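Each compound was tested at five concentrations against cells in 96-well plates for 48 hours. Abbreviation: GI50, concentration required for 50% inhibition of growth. The concentration for full growth arrest is given as TGI.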

What all share (experiment): NCI tumour cell line growth inhibition, 48 h
The test system of assay [1] is OVCAR-3 ovarian.
In assay [2] the test system is OVCAR-8 ovarian.
Assay [3] has as its system TK-10 renal.
In assay [4] the test system is DMS 114 small cell lung.
Assay [5] has as its system SR leukemia.
Assay [6] relates to DLD-1 colon.
The test system of assay [7] is A549 NSCLC.
Assay [8] deals with NCI-H522 lung.
For assay [9], the system named is KM20L2 colon.
In assay [10] the test system is COLO 205 colon.
For assay [11], the system named is SK-MEL-5 melanoma.
In assay [12] the test system is HOP-18 NSCLC.
For assay [13], the system named is MCF7 breast.
In assay [14] the test system is HS 578T breast.

In the case of `Cc1cc(OCC(O)CO)ccc1Cl` (stereo not given), the TGI in assay [1], in assay [2], in [3], in assay [4], in assay [5] and in assay [6] was > 100 µM in each case. In addition, the TGI in assay [7], in [8], in [9], in assay [10], in assay [11] and in assay [12] was > 100 µM each time.
As to `CSc1nc(-c2ccccc2)nc(=[N+]2CCOCC2)s1`, the TGI in [1] was > 100 µM; in [2] it was > 100 µM; in [3], > 100 µM; in assay [5], 67.5 µM; in assay [6], > 100 µM; in [7], > 100 µM. Besides, the TGI in assay [8] was 84.1 µM; in assay [9], > 100 µM; in [10] it was 98.7 µM; in assay [11] it was > 100 µM; in assay [12], > 100 µM.
For the compound `CC(C)(C)CC(C)(C)NCC(O)COc1ccc(C(C)(C)c2ccc(OCC(O)CNC(C)(C)CC(C)(C)C)cc2)cc1` (stereo not given), the TGI worked out at 2.47 µM in [1]; 3.25 µM in assay [2]; 3.32 µM in assay [3]; 3.21 µM in assay [4]; 2.06 µM in assay [6]; 3.02 µM in assay [7]. For the same compound, the TGI is 3.02 µM in assay [8], 2.88 µM in [9], 1.47 µM in assay [10] and 2.67 µM in assay [11]. The GI50 in [3] is 1.75 µM.
For the compound `Nc1ncc2c(n1)-c1ccccc1OC2`, the TGI in [1], in assay [2], in assay [4], in assay [6], in [7] and in [8] was > 100 µM in each case. The TGI in assay [13], in [9], in [10], in assay [11] and in assay [12] was > 100 µM each time.
For the compound `COc1ccc(C2=NN(c3nsc4ccccc34)C(=O)CC2)cc1`, the TGI in [1], in assay [2], in assay [3], in assay [4], in assay [5] and in assay [7] was > 100 µM each time. In addition, the TGI in [9], in assay [10], in [11] and in assay [12] was > 100 µM each time.
`CCCCCCCCCCCCCCCCCCNc1nc(=O)n(C2CC(OP(=O)(O)OCC3OC(n4cc(F)c(=O)[nH]c4=O)CC3O)C(CO)O2)cc1F` (stereo not given): the TGI was > 100 µM in [1]; 73.3 µM in [2]; > 100 µM in assay [3]; 35.1 µM in assay [5]; > 100 µM in assay [7]; > 100 µM in [8]. Moreover, the TGI in [13], in [10], in [14] and in assay [11] was > 100 µM in each case.
Regarding `COc1cc2nc(-c3cccs3)nc(N3C(c4cc(OC)c(OC)c(OC)c4)=NNC(=O)c4ccccc43)c2cc1OC`, the TGI in assay [1] was 50.2 µM; in assay [2], > 100 µM; in [3] it was 51.9 µM; in assay [5], > 100 µM; in [7], > 100 µM; in assay [8], > 100 µM. Also, the TGI in [13], in [10], in [14] and in [11] was > 100 µM in each case.
For the compound `COc1ccc(/C=C2\OC(=O)C(Cl)=C2c2ccc(OC)c(Cl)c2)cc1`, the TGI was 43.7 µM in [1]; 60.8 µM in [2]; 45.6 µM in [3]; > 100 µM in assay [5]; > 100 µM in [7]; 79 µM in assay [8]. Further, the TGI is 46.1 µM in assay [13], > 100 µM in assay [10], 73.7 µM in assay [14] and 48.6 µM in assay [11].
As to `CC(C)N1[C@@H]2CCCC[C@H]2N(C(C)C)[P+]1=O`, the TGI in [1], in assay [2], in assay [3], in assay [5], in [7] and in [8] was > 100 µM throughout. In addition, the TGI in [13], in assay [10], in [14] and in assay [11] was > 100 µM in each case.
As for `O=[N+]([O-])c1ccc(Nc2cccc3c2[nH]c2c(-c4ccccc4)nccc23)c([N+](=O)[O-])c1`, the TGI in [1], in assay [2], in assay [4], in assay [6], in [7] and in assay [8] was > 100 µM in each case. Also, the TGI in assay [13], in assay [9], in assay [10], in [11] and in assay [12] was > 100 µM in each case.
Regarding `Cc1ccc(S(=O)(=O)N/N=C\c2c3ccccc3[n+](C)c3ccccc23)cc1`, the TGI was 71.5 µM in assay [1]; > 100 µM in assay [2]; > 100 µM in assay [3]; > 100 µM in [4]; > 100 µM in [6]; > 100 µM in [7]. Moreover, the TGI in [8] was > 100 µM; in [9], > 100 µM; in [11] it was 98.5 µM.
Consider `O=C(CN1CCN(c2ccccn2)CC1)N1CCCn2c1nc1ccccc1c2=O`, for which the TGI in assay [1], in [2], in assay [3], in [5], in [7] and in assay [8] was > 100 µM in each case. For the same compound, the TGI in assay [13], in [10], in [14] and in assay [11] was > 100 µM in each case.
For `O=[N+]([O-])c1ccc2nc(-c3ccc(Cl)cc3)[nH]c2c1`, the TGI in assay [1] is 89.3 µM; in assay [2], > 100 µM; in assay [3], 72.5 µM; in assay [5] it was 79.9 µM; in [7] it was 70.5 µM; in assay [8] it was 30.5 µM. The TGI amounted to 62.8 µM in assay [13], 30.7 µM in assay [10], 71.7 µM in [14] and 29.7 µM in assay [11].
Take `O=S(=O)(O)c1cc(N=[N+]([O-])c2ccc(N=Nc3ccccc3)cc2S(=O)(=O)O)ccc1/C=C/c1ccc(N=[N+]([O-])c2ccc(N=Nc3ccccc3)cc2S(=O)(=O)O)cc1S(=O)(=O)O`: the TGI in assay [1], in assay [2], in assay [4], in assay [6], in assay [7] and in assay [8] was > 100 µM in each case. The TGI in assay [13], in assay [10], in assay [11] and in [12] was > 100 µM each time.
`CC1=NN(c2nc(N)nc(-c3cc4ccccc4oc3=N)n2)C(C)(C)C1`: the TGI in assay [1] was 31.6 µM; in [2] it was 53 µM; in [3] it was 38.4 µM; in assay [5], 46.8 µM; in [7], 41.3 µM; in assay [8] it was 39.9 µM. Moreover, the TGI in assay [13] is > 100 µM; in [10] it was 31.1 µM; in assay [14], 48.1 µM; in assay [11], 30.6 µM.
Take `Cc1ccc([N+]2=NC(c3ccccc3)=NN(c3ccccc3)C2)cc1`: the TGI in assay [1], in assay [2], in [3], in assay [4], in [5] and in assay [6] was > 100 µM each time. The TGI in assay [7] is > 100 µM; in assay [9], > 100 µM; in assay [10] it was > 100 µM; in assay [11], 73.6 µM.
